Measurements: article PMC7136958, “Targeting the pregnane X receptor using microbial metabolite mimicry” (EMBO Molecular Medicine, 2020)

What was measured:
[1] = molecular target: T1, PXR (Homo sapiens, UniProt O75469); test: PXR reporter (p3A4-luc luciferase) assay in LS180 cells transiently transfected with wild-type PXR; details: for FOLD INDUCTION of PXR reporter luciferase activity: 24 h, over UT
T1 sequence (O75469 1-434): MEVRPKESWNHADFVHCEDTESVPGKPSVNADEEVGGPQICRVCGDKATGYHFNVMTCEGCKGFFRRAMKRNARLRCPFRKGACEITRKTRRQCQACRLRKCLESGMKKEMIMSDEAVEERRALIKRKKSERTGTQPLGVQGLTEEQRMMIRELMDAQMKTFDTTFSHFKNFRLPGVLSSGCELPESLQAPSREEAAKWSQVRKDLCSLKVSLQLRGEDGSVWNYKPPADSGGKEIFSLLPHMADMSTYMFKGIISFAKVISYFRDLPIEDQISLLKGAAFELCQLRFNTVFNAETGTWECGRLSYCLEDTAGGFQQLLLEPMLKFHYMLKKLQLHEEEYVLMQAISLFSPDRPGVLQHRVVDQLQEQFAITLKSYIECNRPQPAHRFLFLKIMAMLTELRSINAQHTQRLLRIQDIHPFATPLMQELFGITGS
Protocol: Incubations were performed in four technical replicates. After the treatments, cells were lysed and luciferase activity was measured on Tecan Infinite M200 Pro plate reader (Schoeller Instruments, Prague, Czech Republic). The data are expressed as fold induction ± SD of luciferase activity over the control cells (agonistic mode—in the absence of a model ligand) or as a percentage of maximal activation ± SD (antagonistic mode—in the presence of a model ligand). […] For all the transfection experiments, specifically multiplexed transfections, the control wells were mock‐transfected ([…]). However, to exclude non‐specific binding of PXR (or other factors) upstream of the luciferase gene within non‐PXR‐binding elements, we performed pilot experiments in different cell passages (P11, P14, and P17) of LS174T cells using a mock luciferase plasmid (luciferase not containing an upstream PXR‐binding element of the CYP3A4 promoter).

[2] = molecular target: T2, AhR (Homo sapiens, UniProt P35869); test: AhR reporter assay, HepG2 cells stably expressing pCYP1A1 luciferase (AZ-AHR); format: cell-based; details: for FOLD INDUCTION (AZ-AHR luciferase): AZ-AHR cells, fold vs DMSO
T2 construct: endogenous in cells; host or cells: AZ-AHR (HepG2)
T2 sequence (P35869 11-848): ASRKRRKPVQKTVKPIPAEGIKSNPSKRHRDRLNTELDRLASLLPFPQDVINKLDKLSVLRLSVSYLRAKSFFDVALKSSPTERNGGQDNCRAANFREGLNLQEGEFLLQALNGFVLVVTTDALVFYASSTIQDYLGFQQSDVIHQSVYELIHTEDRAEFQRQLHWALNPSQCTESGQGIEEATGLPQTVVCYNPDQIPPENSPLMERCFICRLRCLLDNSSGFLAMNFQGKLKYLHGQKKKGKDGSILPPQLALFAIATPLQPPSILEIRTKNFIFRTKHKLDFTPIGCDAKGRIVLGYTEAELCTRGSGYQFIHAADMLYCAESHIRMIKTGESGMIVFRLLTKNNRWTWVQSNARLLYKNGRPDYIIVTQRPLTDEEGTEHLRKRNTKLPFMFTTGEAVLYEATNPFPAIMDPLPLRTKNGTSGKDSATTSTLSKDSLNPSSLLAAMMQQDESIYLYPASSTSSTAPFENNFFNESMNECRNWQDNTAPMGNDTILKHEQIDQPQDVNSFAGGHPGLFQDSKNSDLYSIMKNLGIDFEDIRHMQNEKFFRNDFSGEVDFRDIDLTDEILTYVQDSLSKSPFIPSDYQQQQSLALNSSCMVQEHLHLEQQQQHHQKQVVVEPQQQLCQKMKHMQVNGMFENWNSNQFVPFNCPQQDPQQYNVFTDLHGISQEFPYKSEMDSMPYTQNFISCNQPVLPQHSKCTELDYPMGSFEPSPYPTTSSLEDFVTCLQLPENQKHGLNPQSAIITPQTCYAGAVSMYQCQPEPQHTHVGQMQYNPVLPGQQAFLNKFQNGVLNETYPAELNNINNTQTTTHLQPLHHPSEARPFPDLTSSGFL
Protocol: Incubations were performed in four technical replicates.

SMILES	aver (mean luciferase signal of H1-H4) ([1]; 1 nM)	FOLD INDUCTION of PXR reporter luciferase activity ([1]; 1 nM) [fold]	aver (mean luciferase signal of H1-H4) ([1]; 10 nM)	FOLD INDUCTION of PXR reporter luciferase activity ([1]; 10 nM) [fold]	aver (mean luciferase signal of H1-H4) ([1]; 100 nM)	FOLD INDUCTION of PXR reporter luciferase activity ([1]; 100 nM) [fold]	aver (mean luciferase signal of H1-H4) ([1]; 1 uM)	FOLD INDUCTION of PXR reporter luciferase activity ([1]; 1 uM) [fold]	aver (mean luciferase signal of H1-H4) ([1]; 10 uM)	FOLD INDUCTION of PXR reporter luciferase activity ([1]; 10 uM) [fold]	aver (mean luciferase signal of H1-H4) ([1]; 25 uM)	FOLD INDUCTION of PXR reporter luciferase activity ([1]; 25 uM) [fold]	AhR activation (in words) [2]	FOLD INDUCTION (AZ-AHR luciferase) ([2]; 1 nM) [fold]	FOLD INDUCTION (AZ-AHR luciferase) ([2]; 10 nM) [fold]	FOLD INDUCTION (AZ-AHR luciferase) ([2]; 100 nM) [fold]	FOLD INDUCTION (AZ-AHR luciferase) ([2]; 1µM) [fold]	FOLD INDUCTION (AZ-AHR luciferase) ([2]; 10 µM) [fold]	AhR activation ([2]; 10 μM) [fold]
CC#CC(O)(c1ccncc1)c1cc2ccccc2n1S(=O)(=O)c1ccccc1 (racemic) [FKK3]	5303.8	2.5	3556.8	1.7	7075.5	3.3	50228.8	23.5	65270.5	30.5	57813.0	27.0	variable degrees of dose‐dependent AhR activation profiles	0.8	0.7	0.9	1.1	5.3	
O=S(=O)(c1ccccc1)n1c(C(O)(Cc2cc3ccccc3[nH]2)c2ccncc2)cc2ccccc21 (racemic) [FKK7]	4342.5	1.1	4393.8	1.2	6280.8	1.7	60156.8	15.8	84023.3	22.1	80527.0	21.2	variable degrees of dose‐dependent AhR activation profiles	0.746	0.738	0.7	3.6	75.5	
O=S(=O)(c1ccccc1)n1c(C(O)Cc2cc3ccccc3[nH]2)cc2ccccc21 (racemic) [FKK8]	3847.5	1.0	4121.3	1.1	8608.8	2.3	58017.5	15.3	99864.5	26.3	75044.8	19.7	variable degrees of dose‐dependent AhR activation profiles	0.6	0.7	1.1	2.3	40.8	
OC(c1ccncc1)(c1cc2ccccc2[nH]1)c1cc2ccccc2[nH]1 [FKK2]	2792.0	1.3	2989.5	1.4	3008.8	1.4	7365.5	3.4	41425.5	19.4	32321.0	15.1		0.9	0.9	2.1	15.0	467.5	> 100
OC(Cc1cc2ccccc2[nH]1)(c1ccncc1)c1cc2ccccc2[nH]1 (stereo not drawn) [FKK10]	4648.0	1.3	3990.3	1.1	4278.0	1.2	3689.5	1.1	16756.3	4.8	52110.3	15.0	variable degrees of dose‐dependent AhR activation profiles	0.5	0.318	0.8	1.3	21.9	
